# Reference: ChEMBL document CHEMBL1201862, “PubChem BioAssay data set” (2004)
# The source made the active and inactive calls.
# Assays:
# HEK293 [1] = experiment: inhibition of NOD1-driven NF-kB reporter – cell-based, luminescence, uHTS, primary screen (AID 1578); format: functional; settings: Homo sapiens
# HEK293 [2] = experiment: cells; format: functional, cell-based; settings: Homo sapiens
# HEK293 [3] = experiment: cells; format: functional, cell-based; settings: Homo sapiens; remark: listed apart in the source
# HEK293 [4] = experiment: NOD2 signaling inhibitors in MDP-stimulated cells, cell-based, uHTS, luminescence (AID 2001); format: functional; settings: Homo sapiens
# Tumor necrosis factor = Tumor necrosis factor (Homo sapiens, UniProt P01375); experiment: analog potency on TNFa NF-kB signaling – cell-based, revised, SAR follow-up (AID 2337); format: functional
# [5] = target: Nucleotide-binding oligomerization domain-containing protein 1 (Homo sapiens, UniProt Q9Y239); experiment: blockers of NOD1 pathway activity – revised, SAR follow-up (AID 2333); format: functional
# HEK293 [6] = experiment: cells; settings: Homo sapiens
# [7] = target: Eukaryotic translation initiation factor 4H (Homo sapiens, UniProt Q15056); experiment: inhibitors of translation initiation factor eIF4H – SAR follow-up (AID 435011); format: functional
# [8] = target: T1, Polyadenylate-binding protein 1 (Homo sapiens, UniProt P11940); experiment: PABP inhibition in translation initiation, SAR follow-up (AID 435018); format: functional
# [9] = target: T1, Polyadenylate-binding protein 1; experiment: SAR analysis for the identification of translation initiation inhibitors (PABP) via an Electrophoretic Mobility Shift Dose Response Assay. [Related pubchem assays (depositor defined):AID2012, AID2014, AID2030]; format: functional
# [10] = target: FAD-linked sulfhydryl oxidase ALR (Homo sapiens, UniProt P55789); experiment: ALR-catalysed DTT oxidation blockers – biochemical, H2O2 detection, luminescence, cherry-pick, dose response (AID 493248)
# [11] = target: T2, Intestinal-type alkaline phosphatase (Homo sapiens, UniProt P09923); experiment: activation of human intestinal alkaline phosphatase – biochemical, dose response (AID 488873); format: functional
# [12] = target: T3, Intestinal-type alkaline phosphatase (Mus musculus, UniProt P24822); experiment: PubChem AID 488785; format: functional
# [13] = target: T4, Alkaline phosphatase, tissue-nonspecific isozyme (Homo sapiens, UniProt P05186); experiment: TNAP enzyme inhibition by screening hits, dose response, selectivity assay for mouse IAP inhibitor project, biochemical, human TNAP, uHTS hits (AID 488906); format: functional
# T4 sequence (P05186 whole entry): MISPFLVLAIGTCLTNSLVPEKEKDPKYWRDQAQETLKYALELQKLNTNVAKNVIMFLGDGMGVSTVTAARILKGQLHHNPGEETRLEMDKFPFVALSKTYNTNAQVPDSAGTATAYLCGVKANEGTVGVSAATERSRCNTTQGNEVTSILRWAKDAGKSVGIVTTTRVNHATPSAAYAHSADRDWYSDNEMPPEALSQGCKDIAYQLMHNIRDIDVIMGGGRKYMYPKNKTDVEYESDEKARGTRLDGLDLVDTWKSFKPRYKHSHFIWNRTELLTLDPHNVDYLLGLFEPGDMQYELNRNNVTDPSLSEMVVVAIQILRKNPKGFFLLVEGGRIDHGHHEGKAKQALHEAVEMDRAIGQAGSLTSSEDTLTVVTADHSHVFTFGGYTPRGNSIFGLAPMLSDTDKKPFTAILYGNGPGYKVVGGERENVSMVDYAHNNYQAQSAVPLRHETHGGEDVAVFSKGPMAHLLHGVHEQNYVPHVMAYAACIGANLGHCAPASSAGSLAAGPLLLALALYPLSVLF
# [14] = IC50 of Artemis nuclease activity blockers – biochemical, fluorescence intensity, dose response (AID 720701); format: functional;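 further: Artemis endonuclease enzyme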
# Aminopeptidase N = target: T5, Aminopeptidase N (Plasmodium falciparum FcB1/Columbia, UniProt O96935); experiment: malaria alanyl aminopeptidase activity blockers – biochemical, fluorogenic H-Leu-NHMec substrate, 1536-well (AID 1445); design: species or system Plasmodium falciparum 3D7, 3D7
# T5 sequence (O96935 whole entry): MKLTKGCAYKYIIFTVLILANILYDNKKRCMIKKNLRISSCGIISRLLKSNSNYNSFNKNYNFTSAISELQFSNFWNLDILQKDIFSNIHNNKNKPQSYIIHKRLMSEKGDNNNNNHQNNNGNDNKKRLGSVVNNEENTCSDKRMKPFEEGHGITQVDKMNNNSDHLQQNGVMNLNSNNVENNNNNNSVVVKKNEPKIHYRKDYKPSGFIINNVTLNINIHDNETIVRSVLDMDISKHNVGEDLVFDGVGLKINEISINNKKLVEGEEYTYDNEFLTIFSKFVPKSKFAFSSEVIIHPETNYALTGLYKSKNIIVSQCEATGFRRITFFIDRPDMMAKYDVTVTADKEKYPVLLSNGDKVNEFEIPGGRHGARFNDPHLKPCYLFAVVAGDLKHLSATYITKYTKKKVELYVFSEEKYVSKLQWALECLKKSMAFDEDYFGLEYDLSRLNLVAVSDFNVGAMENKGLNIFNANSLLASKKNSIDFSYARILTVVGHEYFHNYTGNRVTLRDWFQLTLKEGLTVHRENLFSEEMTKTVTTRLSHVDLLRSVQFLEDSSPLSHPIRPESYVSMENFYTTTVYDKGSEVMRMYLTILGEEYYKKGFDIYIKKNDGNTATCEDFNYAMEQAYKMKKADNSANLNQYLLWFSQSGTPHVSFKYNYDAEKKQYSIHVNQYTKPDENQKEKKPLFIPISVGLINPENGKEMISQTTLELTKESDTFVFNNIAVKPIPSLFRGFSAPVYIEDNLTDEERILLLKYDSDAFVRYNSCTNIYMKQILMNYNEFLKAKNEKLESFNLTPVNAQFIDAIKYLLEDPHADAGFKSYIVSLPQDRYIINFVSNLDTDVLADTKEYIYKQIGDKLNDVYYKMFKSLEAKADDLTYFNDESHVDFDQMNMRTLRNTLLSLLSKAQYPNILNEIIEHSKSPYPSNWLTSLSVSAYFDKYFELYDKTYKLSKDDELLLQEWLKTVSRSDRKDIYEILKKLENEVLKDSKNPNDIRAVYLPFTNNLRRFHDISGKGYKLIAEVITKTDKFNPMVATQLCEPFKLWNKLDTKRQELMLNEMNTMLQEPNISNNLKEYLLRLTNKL
# [15] = target: T3, Intestinal-type alkaline phosphatase; experiment: PubChem AID 488874; format: functional
# [16] = target: T2, Intestinal-type alkaline phosphatase; experiment: inhibition of human intestinal alkaline phosphatase – biochemical, luminescent, uHTS hits, set 2, dose response (AID 488793); format: functional
# [17] = target: T2, Intestinal-type alkaline phosphatase; experiment: Dose Response confirmation of uHTS hits from a small molecule inhibitors of human intestinal alkaline phosphatase via a luminescent assay. [Related pubchem assays (depositor defined):AID2544, AID2574]; format: functional
# [18] = target: T4, Alkaline phosphatase, tissue-nonspecific isozyme; experiment: inhibition of tissue-nonspecific alkaline phosphatase – biochemical, dose response (AID 488882); format: functional
# [19] = target: Heat shock protein HSP 90-alpha (Homo sapiens, UniProt P07900); format: functional, organism-based
# [20] = target: 26S proteasome non-ATPase regulatory subunit 14 (Homo sapiens, UniProt O00487); experiment: inhibition of proteasome subunit RPN11 – biochemical, fluorescence polarization, uHTS hits, confirmation (AID 602368); format: functional
# [21] = target: 72 kDa type IV collagenase (Homo sapiens, UniProt P08253); experiment: Dose Response validation of uHTS RPN11 inhibitor hits using a MMP-2 Fluorescence assay.; format: functional
# Prothrombin = Prothrombin (Bos taurus, UniProt P00735); experiment: thrombin protease inhibitors – biochemical, fluorescence polarization, uHTS hits, dose response (AID 602369); format: functional
# T2 sequence (P09923 whole entry): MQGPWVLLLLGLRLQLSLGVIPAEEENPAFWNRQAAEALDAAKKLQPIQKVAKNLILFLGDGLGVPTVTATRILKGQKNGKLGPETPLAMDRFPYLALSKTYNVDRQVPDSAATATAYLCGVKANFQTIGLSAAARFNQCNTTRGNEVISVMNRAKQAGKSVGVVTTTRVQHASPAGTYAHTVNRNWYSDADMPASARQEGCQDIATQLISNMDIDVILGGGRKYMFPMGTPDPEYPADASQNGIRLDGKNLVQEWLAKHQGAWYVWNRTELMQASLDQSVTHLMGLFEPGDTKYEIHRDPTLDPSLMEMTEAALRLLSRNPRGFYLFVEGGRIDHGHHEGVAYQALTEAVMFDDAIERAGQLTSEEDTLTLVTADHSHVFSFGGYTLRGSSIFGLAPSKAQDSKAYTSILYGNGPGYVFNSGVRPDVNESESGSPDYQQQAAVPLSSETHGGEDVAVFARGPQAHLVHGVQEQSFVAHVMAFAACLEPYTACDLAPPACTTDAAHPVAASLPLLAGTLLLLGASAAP
# T1 sequence (P11940 whole entry): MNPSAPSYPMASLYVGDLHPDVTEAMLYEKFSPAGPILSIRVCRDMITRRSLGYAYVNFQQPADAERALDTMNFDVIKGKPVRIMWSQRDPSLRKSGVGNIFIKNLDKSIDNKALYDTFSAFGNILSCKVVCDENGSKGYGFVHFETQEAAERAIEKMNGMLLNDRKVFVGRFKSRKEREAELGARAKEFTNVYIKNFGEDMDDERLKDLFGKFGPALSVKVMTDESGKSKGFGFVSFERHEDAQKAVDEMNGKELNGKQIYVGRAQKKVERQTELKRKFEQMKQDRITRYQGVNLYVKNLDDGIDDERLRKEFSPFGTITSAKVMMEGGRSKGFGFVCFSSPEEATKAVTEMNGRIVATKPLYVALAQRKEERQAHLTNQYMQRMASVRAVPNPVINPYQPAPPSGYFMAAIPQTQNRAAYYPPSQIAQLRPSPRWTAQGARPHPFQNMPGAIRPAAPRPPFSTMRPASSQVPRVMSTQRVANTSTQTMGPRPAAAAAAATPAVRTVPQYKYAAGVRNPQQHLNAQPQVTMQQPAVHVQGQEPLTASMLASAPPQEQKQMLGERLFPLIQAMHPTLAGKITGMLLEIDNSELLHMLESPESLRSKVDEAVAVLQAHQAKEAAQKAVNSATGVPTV
# T3 sequence (P24822 whole entry): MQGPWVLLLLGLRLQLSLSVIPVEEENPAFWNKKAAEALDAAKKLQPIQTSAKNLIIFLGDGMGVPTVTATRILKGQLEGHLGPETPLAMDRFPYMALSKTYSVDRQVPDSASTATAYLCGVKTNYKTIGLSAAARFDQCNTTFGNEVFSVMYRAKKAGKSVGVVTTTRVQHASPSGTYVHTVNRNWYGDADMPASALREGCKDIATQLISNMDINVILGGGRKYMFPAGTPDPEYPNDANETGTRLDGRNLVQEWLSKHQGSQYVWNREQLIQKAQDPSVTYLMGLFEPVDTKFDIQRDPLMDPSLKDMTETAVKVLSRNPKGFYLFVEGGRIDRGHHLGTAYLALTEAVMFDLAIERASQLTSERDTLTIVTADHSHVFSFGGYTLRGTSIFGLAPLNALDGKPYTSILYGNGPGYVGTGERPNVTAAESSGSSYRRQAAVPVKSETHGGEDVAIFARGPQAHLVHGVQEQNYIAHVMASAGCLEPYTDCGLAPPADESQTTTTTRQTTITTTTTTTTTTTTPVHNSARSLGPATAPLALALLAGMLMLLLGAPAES
# Nucleotide-binding oligomerization domain-containing protein 1, sequence (Q9Y239 whole entry, the tested form may be a part): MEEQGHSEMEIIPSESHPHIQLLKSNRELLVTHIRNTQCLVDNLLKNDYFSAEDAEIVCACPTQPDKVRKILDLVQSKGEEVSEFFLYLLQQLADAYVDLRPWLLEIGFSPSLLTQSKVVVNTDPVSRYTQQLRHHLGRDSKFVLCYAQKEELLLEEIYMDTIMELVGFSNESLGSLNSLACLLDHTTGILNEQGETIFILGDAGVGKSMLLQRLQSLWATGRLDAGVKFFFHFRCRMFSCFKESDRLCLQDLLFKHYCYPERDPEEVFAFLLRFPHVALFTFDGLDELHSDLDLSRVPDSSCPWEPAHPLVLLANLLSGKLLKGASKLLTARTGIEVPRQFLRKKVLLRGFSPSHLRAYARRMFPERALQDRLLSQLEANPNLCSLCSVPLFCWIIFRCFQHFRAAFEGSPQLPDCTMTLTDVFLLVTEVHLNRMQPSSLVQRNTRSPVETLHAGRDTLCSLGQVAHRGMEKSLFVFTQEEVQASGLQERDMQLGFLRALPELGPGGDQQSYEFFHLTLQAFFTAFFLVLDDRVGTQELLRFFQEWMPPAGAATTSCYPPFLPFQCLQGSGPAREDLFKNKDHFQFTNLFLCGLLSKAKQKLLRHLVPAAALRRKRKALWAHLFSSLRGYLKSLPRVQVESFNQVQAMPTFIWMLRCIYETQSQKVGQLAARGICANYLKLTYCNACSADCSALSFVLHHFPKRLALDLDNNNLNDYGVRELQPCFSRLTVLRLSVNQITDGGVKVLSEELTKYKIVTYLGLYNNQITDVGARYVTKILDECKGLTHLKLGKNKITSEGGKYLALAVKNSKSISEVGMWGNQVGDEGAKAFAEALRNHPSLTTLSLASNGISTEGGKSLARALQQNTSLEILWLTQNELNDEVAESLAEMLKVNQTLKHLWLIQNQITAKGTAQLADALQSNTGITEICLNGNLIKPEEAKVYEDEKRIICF
# Tumor necrosis factor, sequence (P01375 whole entry, the tested form may be a part): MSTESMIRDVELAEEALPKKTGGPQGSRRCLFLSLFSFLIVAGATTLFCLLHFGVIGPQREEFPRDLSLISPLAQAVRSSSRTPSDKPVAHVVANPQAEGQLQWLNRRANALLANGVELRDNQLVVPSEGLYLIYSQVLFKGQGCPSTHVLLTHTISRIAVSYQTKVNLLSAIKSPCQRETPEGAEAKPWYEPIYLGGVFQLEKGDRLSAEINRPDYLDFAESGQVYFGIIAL
# 26S proteasome non-ATPase regulatory subunit 14, sequence (O00487 whole entry): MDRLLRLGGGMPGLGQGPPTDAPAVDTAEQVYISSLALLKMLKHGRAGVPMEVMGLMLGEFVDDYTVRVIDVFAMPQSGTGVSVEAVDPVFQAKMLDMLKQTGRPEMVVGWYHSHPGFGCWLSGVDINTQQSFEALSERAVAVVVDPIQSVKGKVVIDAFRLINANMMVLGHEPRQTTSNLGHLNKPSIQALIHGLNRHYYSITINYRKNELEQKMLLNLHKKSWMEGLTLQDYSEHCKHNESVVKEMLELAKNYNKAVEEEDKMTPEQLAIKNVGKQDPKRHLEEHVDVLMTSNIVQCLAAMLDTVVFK
# 72 kDa type IV collagenase, sequence (P08253 whole entry): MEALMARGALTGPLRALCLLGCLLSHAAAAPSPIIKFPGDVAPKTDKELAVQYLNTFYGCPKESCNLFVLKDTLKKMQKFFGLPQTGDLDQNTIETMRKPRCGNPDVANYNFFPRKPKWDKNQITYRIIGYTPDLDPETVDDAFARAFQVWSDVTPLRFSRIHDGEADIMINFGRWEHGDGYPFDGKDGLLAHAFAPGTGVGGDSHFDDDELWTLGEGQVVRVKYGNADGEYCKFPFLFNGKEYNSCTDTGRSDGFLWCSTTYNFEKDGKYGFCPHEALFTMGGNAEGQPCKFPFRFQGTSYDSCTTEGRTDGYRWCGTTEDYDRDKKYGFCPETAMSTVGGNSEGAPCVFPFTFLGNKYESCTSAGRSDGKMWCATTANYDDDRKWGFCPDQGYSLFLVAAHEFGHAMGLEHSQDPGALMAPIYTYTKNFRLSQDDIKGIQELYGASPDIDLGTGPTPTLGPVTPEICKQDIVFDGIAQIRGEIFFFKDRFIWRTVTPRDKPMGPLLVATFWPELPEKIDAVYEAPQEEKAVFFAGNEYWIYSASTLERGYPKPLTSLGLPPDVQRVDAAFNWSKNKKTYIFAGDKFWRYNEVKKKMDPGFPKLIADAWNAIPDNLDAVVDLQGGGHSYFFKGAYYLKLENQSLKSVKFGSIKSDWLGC
# FAD-linked sulfhydryl oxidase ALR, sequence (P55789 whole entry): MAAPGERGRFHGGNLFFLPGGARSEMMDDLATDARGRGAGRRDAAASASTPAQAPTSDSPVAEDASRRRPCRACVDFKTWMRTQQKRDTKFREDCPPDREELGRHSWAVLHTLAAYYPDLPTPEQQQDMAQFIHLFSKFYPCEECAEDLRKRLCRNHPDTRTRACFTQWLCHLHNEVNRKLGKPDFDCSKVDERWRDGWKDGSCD
smiles,measurement,setting,value
O=C(Nc1sc2c(c1C(=O)O)CCCC2)c1ccc(Cl)cc1,EC50,HEK293 [1],6.58 µM (active)
same,IC50,HEK293 [2],> 20 µM (inactive)
same,IC50,HEK293 [3],> 20 µM (inactive)
same,IC50,HEK293 [4],16 µM (inactive)
same,IC50,Tumor necrosis factor,13.4 µM (active)
same,IC50,[5],2.86 µM (active)
same,IC50,HEK293 [6],> 20 µM (inactive)
COc1ccc(N2Cc3cccc(C(=O)NC(C)CCc4ccco4)c3C2=O)cc1 (centres undefined),IC50,[7],5.42 µM (active)
same,IC50,[8],> 100 µM (inactive)
same,IC50,[9],10 µM (active)
same,AC50,[10],1.06 µM (active)
O=C(O)CC(C(=O)O)N1C(=O)/C(=C/c2ccc(-c3nc4ccccc4s3)o2)SC1=S (centres undefined),EC50,[11],> 100 µM (inactive)
same,IC50,[12],13.4 µM (active)
same,IC50,[13],24.3 µM (active)
same,IC50,[14],> 20 µM (inactive)
O=C(NN1C(=O)/C(=C/c2ccc(O)c([N+](=O)[O-])c2)SC1=S)c1ccccc1Cl,IC50,Aminopeptidase N,71.1 µM (active)
same,IC50,[15],10.6 µM (active)
same,IC50,[16],22.9 µM (active)
same,IC50,[17],25.4 µM (inactive)
same,IC50,[18],29.8 µM (active)
same,AC50,[19],2.86 µM (active)
same,IC50,[20],39.7 µM (active)
same,IC50,[21],82.1 µM (active)
same,IC50,Prothrombin,32 µM (active)
